In US12129266B2, “Substituted pyrazolo[1,5-a]pyridine compound, composition containing the same and use thereof” (Shenzhen TargetRx, Inc., priority 2018, dated 2024) one finds microsomal CLint, half-life and IC50 data, which are given here for 10 compounds.

A short description of data set [1]: Metabolic stability evaluation, liver microsome assay (HLM). It is filed as in vitro ADME. To be noted: pH 7.4, human liver microsomes 0.5 mg/mL, compound 1 μM, NADPH, 37° C.; for half-life at 1 μM: read-out: HLM t1/2. The method, then: (§1) Microsome assay: human liver microsomes (HLM): 0.5 mg/mL, Xenotech; rat liver microsomes (RLM): 0.5 mg/mL, Xenotech; mice liver microsomes (MLM): 0.5 mg/mL, Xenotech; coenzyme (NADPH/NADH): 1 mM, Sigma Life Science; magnesium chloride: 5 mM, 100 mM phosphate buffer (pH is 7.4).
(§2) Preparation of stock solution: a certain amount of powder of the example compound and the reference compound were accurately weighed, and dissolved to 5 mM with DMSO, respectively.
(§3) Preparation of phosphate buffer (100 mM, pH7.4): Pre-formulated 150 mL 0.5 M potassium dihydrogen phosphate and 700 mL 0.5 M dipotassium hydrogen phosphate solution were mixed, then the pH of the mixture was adjusted to 7.4 with 0.5 M dipotassium hydrogen phosphate solution. Before use, 5-fold dilution was made with ultra-pure water, and magnesium chloride was added to afford phosphate buffer (100 mM), which containing 100 mM potassium phosphate, 3.3 mM magnesium chloride, pH is 7.4.
(§4) NADPH regeneration system solution (containing 6.5 mM NADP, 16.5 mM G-6-P, 3 U/mL G-6-P D, 3.3 mM magnesium chloride) was prepared and placed on wet ice before use.
(§5) Preparation of stop solution: Acetonitrile solution containing 50 ng/mL propranolol hydrochloride and 200 ng/mL tolbutamide (internal standard). 25057.5 μL phosphate buffer (pH 7.4) was taken into a 50 mL centrifuge tube, and 812.5 μL human liver microsome was added, mixed well to afford liver microsome diluent with a protein concentration of 0.625 mg/mL. 25057.5 μL phosphate buffer (pH 7.4) was taken into a 50 mL centrifuge tube, and 812.5 μL SD rat liver microsome was added, respectively, mixed well to afford liver microsome diluent with a protein concentration of 0.625 mg/mL. 25057.5 μL phosphate buffer (pH 7.4) was taken into a 50 mL centrifuge tube, and 812.5 μL mice liver microsome was added, respectively, mixed well to afford liver microsome diluent with a protein concentration of 0.625 mg/mL.
(§6) Incubation of the sample: The stock solutions of the corresponding compounds were diluted to 0.25 mM with an aqueous solution containing 70% acetonitrile as working solutions for use. 398 μL of human liver microsome or rat liver microsome or mice liver microsome diluent was taken and added to a 96-well incubation plate (N=2), respectively, and 2 μL of 0.25 mM working solution was then added respectively, and mixed well.
(§7) Determination of metabolic stability: 300 μL of pre-chilled stop solution was added to each well of a 96-well deep well plate and the plate was placed on ice as a stop plate. The 96-well incubation plate and NADPH regeneration system were placed in a 37° C. water bath box, shook at 100 rpm, and pre-incubated for 5 min. 80 μL of incubation solution was taken from each well of the incubation plate and added to the stop plate, mixed well, and 20 μL of NADPH regeneration system solution was supplemented, the resulted solution was considered as sample at 0 min. Then 80 μL of NADPH regeneration system solution was added to each well of the incubation plate to start the reaction and started timing. The reaction concentration of the corresponding compound is 1 μM, and the protein concentration is 0.5 mg/mL. 100 μL reaction solution was taken at 10, 30, 90 min of reaction, respectively, and added into stop plate, the reaction was stopped with 3 min vortex. The stop plate was centrifuged at 5000×g, 4° C. for 10 min. 100 μL of supernatant was taken to a 96-well plate where 100 μL of distilled water was added in advance, mixed well, sample analysis was subjected by LC-MS/MS.
(§8) Data analysis: LC-MS/MS system was used to detect peak area of corresponding compound and internal standard, peak area ratio of compound and internal standard was calculated.
(§9) [formula] t1/2(min); CLint(μL/min/mg).

Data set [2] can be described thus: Metabolic stability evaluation, liver microsome assay (RLM). The class given is in vitro ADME, SD rat. Conditions: Sprague-Dawley, pH 7.4, rat liver microsomes 0.5 mg/mL, compound 1 μM, NADPH, 37° C.; for half-life at 1 μM: read-out: RLM t1/2. The method, then: as §1, §2, §3, §4, §5, §6, §7, §8, §9
Background: Microsomes from liver hold many membrane-bound enzymes, among them those of drug oxidation.

Data set [3] can be described thus: Metabolic stability evaluation, liver microsome assay (MLM). To be noted: mouse, mouse liver microsomes, pH 7.4, mice liver microsomes 0.5 mg/mL, compound 1 μM, NADPH, 37° C.; for half-life at 1 μM: read-out: MLM t1/2. The class given is in vitro ADME. The method, then: as §1, §2, §3, §4, §5, §6, §7, §8, §9
The subject of a further data set is Ba/F3 parental. Nature of the data set: cells. Conditions: Mus musculus, BaF3, 72 h, read-out: IC50 (nM) Ba/F3 parental.
Another data set has as its system Ba/F3 KIF5B-RET. Nature of the data set: Cytotoxicity assay (CellTiter-Glo), Ba/F3 KIF5B-RET. It is filed as cell-based. Conditions: Mus musculus, BaF3; cell viability, 72 hours, CTG. (ATP-based viability assays read luminescence as a measure of living cells.)
A further data set has as its system Ba/F3 KIF5B-RET^V804M. Nature of the data set: Cytotoxicity assay (CellTiter-Glo), Ba/F3 KIF5B-RET V804M. To be noted: Mus musculus, BaF3; cell viability, 72 hours, CTG. It is filed as cell-based.

Broadly, the microsomal CLint is the rate of metabolic loss divided by the concentration. A lower microsomal CLint goes with greater metabolic stability. Turning to `[2H]C([2H])([2H])Oc1ccc(CN2C3CC2CN(c2ccc(-c4cc(-c5cnn(C)c5)cn5ncc(C#N)c45)cn2)C3)cn1` [Example 1, 4-(6-(6-((6-(methoxy-d3)pyridin-3-yl)methyl)-3,6-diazabicyclo[3.1.1]heptan-3-yl)pyridin-3-yl)-6-(1-methyl-1H-pyrazol-4-yl)pyrazolo[1,5-a]pyridine-3-carbonitrile], the microsomal CLint at 1 μM in data set [1] was 87.5 µL/min/mg; in data set [2], 51.5 µL/min/mg; in data set [3], 73.2 µL/min/mg. Moreover, the results for the half-life at 1 μM in data set [1], in data set [2] and in data set [3] were 15.8 min, 26.9 min and 18.9 min, respectively.
For `[2H]C([2H])(c1ccc(OC)nc1)N1C2CC1CN(c1ccc(-c3cc(-c4cnn(C)c4)cn4ncc(C#N)c34)cn1)C2` [Example 2, 4-(6-(6-((6-methoxypyridin-3-yl)methyl-d2)-3,6-diazabicyclo[3.1.1]heptan-3-yl)pyridin-3-yl)-6-(1-methyl-1H-pyrazol-4-yl)pyrazolo[1,5-a]pyridine-3-carbonitrile], the microsomal CLint at 1 μM in data set [1] was 105 µL/min/mg; in data set [2], 35.1 µL/min/mg; in data set [3] it was 78.3 µL/min/mg. Moreover, the half-life at 1 μM is 13.2 min in data set [1], 39.5 min in data set [2] and 17.7 min in data set [3].
On to `[2H]C([2H])([2H])Oc1ccc(C([2H])([2H])N2C3CC2CN(c2ccc(-c4cc(-c5cnn(C)c5)cn5ncc(C#N)c45)cn2)C3)cn1` [Example 3, 4-(6-(6-((6-(methoxy-d3)pyridin-3-yl)methyl-d2)-3,6-diazabicyclo[3.1.1]heptan-3-yl)pyridin-3-yl)-6-(1-methyl-1H-pyrazol-4-yl)pyrazolo[1,5-a]pyridine-3-carbonitrile], for which the values for the intrinsic clearance (microsomal CLint) at 1 μM in data set [1], in data set [2] and in data set [3] were 85.6 µL/min/mg, 55.3 µL/min/mg and 68.8 µL/min/mg, respectively. Besides, the half-life at 1 μM in data set [1] was 16.2 min; in data set [2], 25.1 min; in data set [3], 20.2 min.
For the compound `[2H]C([2H])([2H])Oc1ccc(CN2C3CC2CN(c2ccc(-c4cc(-c5cnn(C([2H])([2H])[2H])c5)cn5ncc(C#N)c45)cn2)C3)cn1` [Example 4, 4-(6-(6-((6-(methoxy-d3)pyridin-3-yl)methyl)-3,6-diazabicyclo[3.1.1]heptan-3-yl)pyridin-3-yl)-6-(1-(methyl-d3)-1H-pyrazol-4-yl)pyrazolo[1,5-a]pyridine-3-carbonitrile], the microsomal CLint at 1 μM in data set [1] stood at 97.9 µL/min/mg; in data set [2] it was 49.1 µL/min/mg; in data set [3] it was 63.5 µL/min/mg. The figures for the half-life at 1 μM in data set [1], in data set [2] and in data set [3] were 14.2 min, 28.2 min and 21.8 min, respectively.
As for `[2H]C([2H])(c1ccc(OC)nc1)N1C2CC1CN(c1ccc(-c3cc(-c4cnn(C([2H])([2H])[2H])c4)cn4ncc(C#N)c34)cn1)C2` [Example 5, 4-(6-(6-((6-methoxypyridin-3-yl)methyl-d2)-3,6-diazabicyclo[3.1.1]heptan-3-yl)pyridin-3-yl)-6-(1-(methyl-d3)-1H-pyrazol-4-yl)pyrazolo[1,5-a]pyridine-3-carbonitrile], the microsomal CLint at 1 μM was determined as 83.2 µL/min/mg in data set [1], 37.9 µL/min/mg in data set [2] and 75.8 µL/min/mg in data set [3]. The values for the half-life at 1 μM in data set [1], in data set [2] and in data set [3] were 16.7 min, 36.6 min and 18.3 min, respectively.
Turning to `[2H]C([2H])([2H])Oc1ccc(C([2H])([2H])N2C3CC2CN(c2ccc(-c4cc(-c5cnn(C([2H])([2H])[2H])c5)cn5ncc(C#N)c45)cn2)C3)cn1` [Example 6, 4-(6-(6-((6-(methoxy-d3)pyridin-3-yl)methyl-d2)-3,6-diazabicyclo[3.1.1]heptan-3-yl)pyridin-3-yl)-6-(1-(methyl-d3)-1H-pyrazol-4-yl)pyrazolo[1,5-a]pyridine-3-carbonitrile], the microsomal CLint at 1 μM in data set [1] turned out to be 112 µL/min/mg; in data set [2], 47.3 µL/min/mg; in data set [3] it was 65 µL/min/mg. For the same compound, the values for the half-life at 1 μM in data set [1], in data set [2] and in data set [3] were 12.4 min, 29.3 min and 21.3 min, respectively.
Regarding `[2H]C([2H])([2H])n1cc(-c2cc(-c3ccc(N4CC5CC(C4)N5Cc4ccc(OC)nc4)nc3)c3c(C#N)cnn3c2)cn1` [Example 7, 4-(6-(6-((6-methoxypyridin-3-yl)methyl)-3,6-diazabicyclo[3.1.1]heptan-3-yl)pyridin-3-yl)-6-(1-(methyl-d3)-1H-pyrazol-4-yl)pyrazolo[1,5-a]pyridine-3-carbonitrile], the microsomal CLint at 1 μM came to 11.1 µL/min/mg in data set [1], 11.3 µL/min/mg in data set [2] and 76 µL/min/mg in data set [3]. Besides, the half-life at 1 μM in data set [1] worked out at 124 min; in data set [2] it was 122 min; in data set [3], 18.2 min.
Turning to `[2H]C([2H])(c1ccc(OC)nc1)N1C2CC1CN(c1ccc(-c3cc(OC[C@H]4CNCCO4)cn4ncc(C#N)c34)cn1)C2` [Example 8], the values for the intrinsic metabolic clearance (microsomal CLint) at 1 μM in data set [1], in data set [2] and in data set [3] were 10.6 µL/min/mg, 5.3 µL/min/mg and 5.8 µL/min/mg, respectively. Further, the half-life at 1 μM was 131 min in data set [1], 263 min in data set [2] and 237 min in data set [3]. The IC50 in the data set on Ba/F3 parental amounted to 3360 nM.
With `[2H]C([2H])(c1ccc(OC)nc1)N1C2CC1CN(c1ccc(-c3cc(OCC(C)(C)O)cn4ncc(C#N)c34)cn1)C2` [Example 11, 6-(2-hydroxy-2-methylpropoxy)-4-(6-(6-((6-methoxypyridin-3-yl)methyl-d2)-3,6-diazabicyclo[3.1.1]heptan-3-yl)pyridin-3-yl)pyrazolo[1,5-a]pyridine-3-carbonitrile], the microsomal CLint at 1 μM in data set [1] is 96.2 µL/min/mg; in data set [2], 11.7 µL/min/mg; in data set [3], 44.8 µL/min/mg. Further, the half-life at 1 μM is 14.4 min in data set [1], 118 min in data set [2] and 30.9 min in data set [3]. For the same compound, the values for the IC50 with Ba/F3 KIF5B-RET, in the data set on Ba/F3 KIF5B-RET^V804M and in the data set on Ba/F3 parental were 19.1 nM, 40.5 nM and 3510 nM, respectively.
On to `[2H]C([2H])([2H])Oc1ccc(CN2C3CC2CN(c2ccc(-c4cc(OCC(C)(C)O)cn5ncc(C#N)c45)cn2)C3)cn1` [Example 12, 6-(2-hydroxy-2-methylpropoxy)-4-(6-(6-((6-(methoxy-d3)pyridin-3-yl)methyl)-3,6-diazabicyclo[3.1.1]heptan-3-yl)pyridin-3-yl)pyrazolo[1,5-a]pyridine-3-carbonitrile], for which the microsomal CLint at 1 μM was determined as 93.1 µL/min/mg in data set [1], 10.1 µL/min/mg in data set [2] and 44.9 µL/min/mg in data set [3]. Moreover, the half-life at 1 μM in data set [1] worked out at 14.9 min; in data set [2], 137 min; in data set [3] it was 30.8 min. Besides, the IC50 in the data set with Ba/F3 KIF5B-RET was found to be 16 nM; in the data set on Ba/F3 KIF5B-RET^V804M, 45.2 nM; in the data set with Ba/F3 parental, 5930 nM.
